# Measurements: US20250368647A1, “NITROGEN CONTAINING CONDENSED 2,3-DIHYDROQUINAZOLINONE COMPOUNDS AS NAV1.8 INHIBITORS” (GLAXOSMITHKLINE INTELLECTUAL PROPERTY DEVELOPMENT LIMITED, priority 2022, published 2025)
# Structures can show the parent of a compound that is named as a salt.
# Target: human Nav1.8 (Homo sapiens (Human), UniProt Q9Y5Y9)
# Assay: QPatch 48 HTX voltage-clamp electrophysiology, half inactivation state (V1/2) protocol, HEK293-Nav1.8 cells
# Type: cell-based
# Conditions: HEK293 cells expressing human Nav1.8, human Navβ1 and human TREK1, P2 current
# Method: Human embryonic kidney 293 cells (HEK293) expressing human Nav1.8, human Navβ1 and human TREK1 (HEK293-Nav1.8) were grown in T150 cell culture flasks at 37° C., 5% CO2 incubator. HEK293-Nav1.8 were passaged every 2-3 days when confluency reached 80-90% in T150 cell culture flasks.
# Pharmacological assessment of compounds of the invention was performed using the QPatch 48 HTX electrophysiological platform. HEK293-Nav1.8 cells were prepared on the day of use by removing culture media, washing in DPBS, adding Accutase (2 mL to cover the surface, aspirate 1 mL then 1-2 minutes at 37° C.) followed by addition of CHO-SFM II to stop the enzyme digestion and in order to obtain a suspension of 3×10^6 cell/mL.
# Compounds of the invention were prepared in an extracellular solution of the following composition: NaCl (145 mM), KCl (4 mM), CaCl2) (2 mM), MgCl (2 mM), HEPES (1 mM), Glucose (10 mM), pH 7.4 with NaOH Osmolality 300 mOsM/L. An intracellular solution of the following composition was used: CsF (115 mM), CsCl (20 mM), NaCl (5 mM), EGTA (10 mM), HEPES (10 mM), Sucrose (20 mM), pH 7.2 with CsOH Osmolality 310 mOsm/L.
# Utilizing the voltage-clamp mode in the QPatch 48 HTX system a half inactivation state voltage protocol (V1/2) was used to determine pharmacological activity of compounds of the invention at Nav1.8 ion channels. A V1/2 protocol was utilized with the following voltage steps: a holding voltage of −100 mV was established followed by a 20 ms voltage step to 0 mV (P1), followed by an inactivating voltage step at −46 mV for 8 seconds, followed by a step to −100 mV for 20 ms, before a 20 ms step to 0 mV (P2), then returned to the holding voltage of −100 mV. This voltage protocol was repeated at a frequency of every 15 seconds, the current magnitude was quantified at the P2 step throughout the recording. Inhibition of the measured current amplitude with compounds of the invention was analyzed by fitting a 4-6 points dose-response curve allowing determination of the fifty percent inhibition concentration (IC50). P2 currents were normalized according to measurements made at baseline (Baseline, vehicle only), after compound (Input, at each test concentration), and after positive reference compound (FullResponse, to achieve complete block), fit to the following equation: […]
# To assess current run-down over the course of the experiment vehicle-only wells were utilized and the normalized current with vehicle-only (n.IVEH) was determined. To correct the compound response for run-down, the currents were corrected according to the following formula: […]
# Compound inhibition was fitted to the following Hill Equation to estimate the half maximal inhibition concentration (IC50)
# [formula] • where Y is the normalized run-down corrected inhibition relative to the vehicle control (equivalent to n.IRD_Correct), C the test compound concentration, IC50 the concentration of test compound to inhibit the sodium current by 50%, and h the Hill coefficient.
# Chain of human Nav1.8 (Q9Y5Y9 whole entry): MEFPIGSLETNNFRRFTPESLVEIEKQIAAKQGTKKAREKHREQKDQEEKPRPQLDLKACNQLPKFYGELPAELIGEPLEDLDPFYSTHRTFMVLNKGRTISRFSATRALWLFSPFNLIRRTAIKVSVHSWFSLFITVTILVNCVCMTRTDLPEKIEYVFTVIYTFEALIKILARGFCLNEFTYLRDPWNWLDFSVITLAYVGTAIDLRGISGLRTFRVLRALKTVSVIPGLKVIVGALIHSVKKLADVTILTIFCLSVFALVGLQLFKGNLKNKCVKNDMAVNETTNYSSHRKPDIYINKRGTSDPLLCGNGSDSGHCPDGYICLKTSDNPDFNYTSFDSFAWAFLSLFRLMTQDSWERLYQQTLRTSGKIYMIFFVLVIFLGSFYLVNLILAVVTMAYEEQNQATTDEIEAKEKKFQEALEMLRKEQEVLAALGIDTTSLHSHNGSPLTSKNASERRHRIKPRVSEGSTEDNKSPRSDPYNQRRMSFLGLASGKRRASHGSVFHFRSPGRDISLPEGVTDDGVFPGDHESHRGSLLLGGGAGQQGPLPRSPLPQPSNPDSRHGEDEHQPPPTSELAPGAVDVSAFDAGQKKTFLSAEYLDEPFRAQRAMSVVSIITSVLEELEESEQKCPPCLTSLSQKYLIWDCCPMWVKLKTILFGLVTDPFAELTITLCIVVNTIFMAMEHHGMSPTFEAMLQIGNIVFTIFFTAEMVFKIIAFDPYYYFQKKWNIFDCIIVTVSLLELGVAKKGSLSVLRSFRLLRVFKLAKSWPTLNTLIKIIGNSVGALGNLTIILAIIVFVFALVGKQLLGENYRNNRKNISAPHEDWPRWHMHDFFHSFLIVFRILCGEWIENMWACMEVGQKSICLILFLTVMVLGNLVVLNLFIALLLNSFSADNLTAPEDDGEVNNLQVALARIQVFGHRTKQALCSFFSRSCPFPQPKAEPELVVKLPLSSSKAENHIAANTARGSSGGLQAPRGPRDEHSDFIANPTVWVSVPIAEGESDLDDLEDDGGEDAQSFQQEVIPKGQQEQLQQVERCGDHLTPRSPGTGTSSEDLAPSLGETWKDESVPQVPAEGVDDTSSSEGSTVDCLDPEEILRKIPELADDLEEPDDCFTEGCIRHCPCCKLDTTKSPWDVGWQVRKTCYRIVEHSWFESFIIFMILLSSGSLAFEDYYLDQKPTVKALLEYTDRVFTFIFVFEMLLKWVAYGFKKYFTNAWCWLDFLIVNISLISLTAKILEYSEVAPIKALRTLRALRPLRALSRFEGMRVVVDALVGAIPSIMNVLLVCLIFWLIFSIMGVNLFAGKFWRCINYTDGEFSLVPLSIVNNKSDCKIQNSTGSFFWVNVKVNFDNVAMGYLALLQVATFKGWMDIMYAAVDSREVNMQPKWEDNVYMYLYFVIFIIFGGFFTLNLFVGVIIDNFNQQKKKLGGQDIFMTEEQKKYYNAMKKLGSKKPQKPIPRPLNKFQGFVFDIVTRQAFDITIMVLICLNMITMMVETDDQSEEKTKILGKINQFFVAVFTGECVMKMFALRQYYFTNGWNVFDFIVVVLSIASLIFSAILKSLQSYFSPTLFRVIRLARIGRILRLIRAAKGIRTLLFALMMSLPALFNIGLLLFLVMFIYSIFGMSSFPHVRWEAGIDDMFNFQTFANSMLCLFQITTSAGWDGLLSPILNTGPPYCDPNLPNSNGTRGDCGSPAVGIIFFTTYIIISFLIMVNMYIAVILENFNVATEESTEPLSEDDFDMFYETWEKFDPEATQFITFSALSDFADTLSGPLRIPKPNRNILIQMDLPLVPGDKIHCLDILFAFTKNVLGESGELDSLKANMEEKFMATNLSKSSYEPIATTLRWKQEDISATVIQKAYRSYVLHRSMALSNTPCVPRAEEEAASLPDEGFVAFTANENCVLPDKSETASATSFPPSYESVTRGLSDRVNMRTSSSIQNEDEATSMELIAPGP
# Chain of human Nav1.8 (Q07699 19-218 partner): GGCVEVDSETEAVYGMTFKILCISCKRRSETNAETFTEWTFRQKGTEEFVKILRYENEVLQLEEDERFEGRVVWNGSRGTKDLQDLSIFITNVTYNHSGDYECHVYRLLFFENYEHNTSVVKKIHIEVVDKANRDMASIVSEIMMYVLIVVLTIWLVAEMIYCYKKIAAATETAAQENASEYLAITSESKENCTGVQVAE
row,SMILES,"Nav1.8, pIC50"
1,"O=C1c2cc(C(F)(F)F)ccc2N2CN1c1ccc(=O)[nH]c1NCCCc1c2ccc(F)c1F [Example 37, 8,9-Difluoro-2-(trifluoromethyl)-10,11,12,13-tetrahydro-19H-5,18-methanodibenzo[f,i]dipyrido[2,3,-b][1,4,8]triazacyclotridecine-15,19(14H)-dione]",7.7
2,"O=C1c2cc(C(F)(F)F)ncc2N2CN1c1ccc(=O)[nH]c1NCCCc1c2ccc(F)c1F [Example 38, 8,9-Diluoro-2-(trifluoromethyl)-10,11,12,13-tetrahydro-19H-5,18-methanodibenzo[i]dipyrido[2,3,-b:4′,3′-f][1,4,8]triazacyclotridecine-15,19(14H)-dione]",6.8
3,"O=C1c2cc(C(F)(F)F)ccc2N2CN1c1ccc(=O)[nH]c1NCCCc1cc(F)c(F)cc12 [Example 39, 7,8-Difluoro-2-(trifluoromethyl)-10,11,12,13-tetrahydro-19H-5,18-methanodibenzo[f,i]dipyrido[2,3,-b][1,4,8]triazacyclotridecine-15,19(14H)-dione]",7.0
4,"O=C1c2cc(C(F)(F)F)ncc2N2CN1c1ccc(=O)[nH]c1CCCCc1cc(F)ccc12 [Example 40, 8-Fluoro-2-(trifluoromethyl)-10,11,12,13-tetrahydro-19H-5,18-methanobenzo[l]dipyrido[3,4-b:3′,2′-f][1,5]diazocyclotridecine-15,19(14H)-dione]",6.0
5,"O=C1c2cc(C(F)(F)F)ccc2N2CN1c1ccc(=O)[nH]c1CCNCc1cc(F)ccc12 [Example 41, 8-Fluoro-2-(trifluoromethyl)-10,11,12,13-tetrahydro-19H-5,18-methanodibenzo[c,f]pyrido[3,2-f][1,5,9]triazacyclotridecine-15,19(14H)-dione]",7.3
6,"O=C1c2cc(Cl)cnc2N2CN1c1ccc(=O)[nH]c1CCNCc1cc(F)ccc12 [Example 42, 2-Chloro-8-fluoro-10,11,12,13-tetrahydro-19H-5,18-methanodibenzo[c]dipyrido[2,3-f:3′,2′-j][1,5,9]triazacyclotridecine-15,19(14H)-dione]",6.9
7,"O=C1c2cc(Cl)c(F)cc2N2CN1c1ccc(=O)[nH]c1CCNCc1cc(F)ccc12 [Example 43, 2-Chloro-3,8-difluoro-10,11,12,13-tetrahydro-19H-5,18-methanodibenzo[c,f]pyrido[3,2-f][1,5,9]triazacyclotridecine-15,19(14H)-dione]",7.4
8,"O=C1c2cc(F)c(C(F)(F)F)cc2N2CN1c1ccc(=O)[nH]c1CCNCc1cc(F)ccc12 [Example 44, 2,8-Difluoro-3-(trifluoromethyl)-10,11,12,13-tetrahydro-19H-5,18-methanodibenzo[c,f]pyrido[3,2-i][1,5,9]triazacyclotridecine-15,19(14H)-dione]",8.6
9,"O=C1c2c(ccc(C(F)(F)F)c2F)N2CN1c1ccc(=O)[nH]c1CCNCc1cc(F)ccc12 [Example 45, 1,8-Difluoro-2-(trifluoromethyl)-10,11,12,13-tetrahydro-19H-5,18-methanodibenzo[c,f]pyrido[3,2-j][1,5,9]triazacyclotridecine-15,19(14H)-dione]",6.9
10,"Cl.O=C1c2cc(F)c(Cl)cc2N2CN1c1ccc(=O)[nH]c1CCNCc1cc(F)ccc12 [Example 46, 3-Chloro-2,8-difluoro-10,11,12,13-tetrahydro-19H-5,18-methanodibenzo[c,f]pyrido[3,2-j][1,5,9]triazacyclotridecine-15,19(14H)-dione, hydrochloride]",8
11,"Cl.O=C1c2cc(F)c(C(F)(F)F)cc2N2CN1c1ccc(=O)[nH]c1CCNCc1c2ccc(F)c1F [Example 48, 2,8,9-Trifluoro-3-(trifluoromethyl)-10,11,12,13-tetrahydro-19H-5,18-methanodibenzo[c,f]pyrido[3,2-j][1,5,9]triazacyclotridecine-15,19(14H)-dione hydrochloride]",8.1
12,"Cl.O=C1c2cc(F)c(Cl)cc2N2CN1c1ccc(=O)[nH]c1CCNCc1c2ccc(F)c1F [Example 49, 3-Chloro-2,8,9-trifluoro-10,11,12,13-tetrahydro-19H-5,18-methanodibenzo[c,f]pyrido[3,2-j][1,5,9]triazacyclotridecine-15,19(14H)-dione hydrochloride]",8.2
13,"O=C1c2cc(F)c(Cl)cc2N2CN1c1ccc(=O)[nH]c1CCNCc1c2ccc(F)c1F [Example 50, 3-Chloro-2,8,9-trifluoro-10,11,12,13-tetrahydro-19H-5,18-methanodibenzo-[c,f]pyrido[3,2-j][1,5,9]triazacyclotridecine-15,19(14H)-dione]",8
14,"Cl.O=C1c2cc(F)c(F)cc2N2CN1c1ccc(=O)[nH]c1CCNCc1cc(F)ccc12 [Example 53, 2,3,8-Trifluoro-10,11,12,13-tetrahydro-19H-5,18-methanodibenzo[c,f]pyrido[3,2-j][1,5,9]triazacyclotridecine-15,19(14H)-dione hydrochloride]",6.7
15,"CNc1cc2c(cc1F)C(=O)N1CN2c2ccc(F)cc2CNCCc2[nH]c(=O)ccc21 [Example 54, 2,8-Difluoro-3-(methylamino)-10,11,12,13-tetrahydro-19H-5,18-methano-dibenzo[c,f]pyrido[3,2-j][1,5,9]triazacyclotridecine-15,19(14H)-dione]",6
16,"N#Cc1cc2c(cc1Cl)C(=O)N1CN2c2ccc(F)cc2CNCCc2[nH]c(=O)ccc21 [Example 55, 2-Chloro-8-fluoro-15,19-dioxo-10,11,12,13,14,15-hexahydro-19H-5,18-methano-dibenzo[c,f]pyrido[3,2-j][1,5,9]triazacyclotridecine-3-carbonitrile]",7.2
17,"N#Cc1cc2c(cc1F)C(=O)N1CN2c2ccc(F)c(F)c2CNCCc2[nH]c(=O)ccc21 [Example 57, 2,8,9-Trifluoro-15,19-dioxo-10,11,12,13,14,15-hexahydro-19H-5,18-methano-dibenzo[c,f]pyrido[3,2-j][1,5,9]triazacyclotridecine-3-carbonitrile]",7.4
18,"O=C1c2cc(F)c(C(F)(F)F)cc2N2CN1c1ccc(=O)[nH]c1CCNCc1c2ccc(F)c1Cl [Example 58, 9-Chloro-2,8-difluoro-3-(trifluoromethyl)-10,11,12,13-tetrahydro-19H-5,18-methano-dibenzo[c,f]pyrido[3,2-j][1,5,9]triazacyclotridecine-15,19(14H)-dione]",8.9
19,"Cl.O=C1c2cc(Cl)c(C(F)(F)F)cc2N2CN1c1ccc(=O)[nH]c1CCNCc1cc(F)ccc12 [Example 59, 2-Chloro-8-fluoro-3-(trifluoromethyl)-10,11,12,13-tetrahydro-19H-5,18-methanodibenzo[c,f]pyrido[3,2-j][1,5,9]triazacyclotridecine-15,19(14H)-dione hydrochloride]",7.8
20,"Cl.O=C1c2cc(Cl)c(C(F)(F)F)cc2N2CN1c1ccc(=O)[nH]c1CCNCc1c2ccc(F)c1F [Example 60, 2-Chloro-8,9-difluoro-3-(trifluoromethyl)-10,11,12,13-tetrahydro-19H-5,18-methanodibenzo[c,f]pyrido[3,2-j][1,5,9]triazacyclotridecine-15,19(14H)-dione hydrochloride]",8.8
21,"Cl.O=C1c2cc(F)c(Br)cc2N2CN1c1ccc(=O)[nH]c1CCNCc1c2ccc(F)c1F [Example 62, 3-Bromo-2,8,9-trifluoro-10,11,12,13-tetrahydro-19H-5,18-methanodibenzo[c,f]pyrido[3,2-j][1,5,9]triazacyclotridecine-15,19(14H)-dione hydrochloride]",8.2

# Same assay, conditions: HEK293 cells expressing human Nav1.8, human Navβ1 and human TREK1, P2 current, read-out: Nav1.8, pIC50 (converted)
row,SMILES,IC50
1,"Cc1c(F)ccc2c1CNCCc1[nH]c(=O)ccc1N1CN2c2cc(C(F)(F)F)c(F)cc2C1=O [Example 61, 2,8-Difluoro-9-methyl-3-(trifluoromethyl)-10,11,12,13-tetrahydro-19H-5,18-methanodibenzo[c,f]pyrido[3,2-j][1,5,9]triazacyclotridecine-15,19(14H)-dione hydrochloride]",3.98 nM
